{"source": "patent US12491233B2", "about": "“Pharmaceutical composition, for preventing or treating Charcot-Marie-Tooth disorder, comprising mesenchymal stem cells or insulin secreted by mesenchymal stem cells” (SAMSUNG LIFE PUBLIC WELFARE FOUNDATION, priority 2020, dated 2025)", "key": {"MPZ [1]": {"test_system": "MPZ", "experiment": "MPZ expression level in sciatic nerve tissue by western blotting", "type": "in vivo, mice", "conditions": "12 U/kg intravenously, after two weeks, WT = 100, sham 3.84", "description": "5-Week-old Charcot-Marie-Tooth disease mice were intravenously administered with 12 U/kg insulin, and after two weeks, the sciatic nerve tissue was collected and then the MPZ expression level was determined using MPZ antibody by the same method as in protein expression analysis through western blotting in Example 3, and the results are shown in FIGS. 8F and 8G and Table 15."}, "[2]": {"test_system": "Charcot-Marie-Tooth disease mice", "experiment": "Grip strength testing in Charcot-Marie-Tooth disease mice", "type": "in vivo", "conditions": "5-week-old CMT mice, 12 U/kg intravenously, after two weeks; WT 8.9, sham 6.2", "description": "5-Week-old Charcot-Marie-Tooth disease mice were intravenously administered with 12 U/kg insulin and, after two weeks, examined for behavioral performance increase through grip strength testing as in Example 5."}, "Dystrophin": {"test_system": "Dystrophin", "experiment": "Myogenesis of gastrocnemius muscle tissue, dystrophin fluorescent antibody", "type": "in vivo, mice", "description": "5-Week-old Charcot-Marie-Tooth disease mice were intravenously administered with 12 U/kg insulin, and after two weeks, the gastrocnemius muscle tissue was collected. Then, the increase in myogenesis was measured using the dystrophin antibody by the same method as in protein expression analysis using a fluorescent antibody in Example 7, and the results are shown in FIGS. 9A and 9B and Table 16."}, "[3]": {"test_system": "Charcot-Marie-Tooth disease mice", "experiment": "MRI of gastrocnemius muscle tissue, cross-sectional area and volume", "type": "in vivo", "conditions": "12 U/kg intravenously, after two weeks; for CSA: MRI; for Volume: from cross-sectional area", "description": "5-Week-old Charcot-Marie-Tooth disease mice were intravenously administered with 12 U/kg insulin and, after two weeks, the gastrocnemius muscle tissue was observed by the MRI system. In addition, the cross-sectional area of the muscle tissue was measured to obtain the volume of the muscle tissue, and the results are shown in FIG. 9E and Table 18."}, "Schwann cells [4]": {"test_system": "Schwann cells", "experiment": "ATP measurement, CellTiter-Glo Luminescent Cell Viability Assay", "type": "cell-based", "conditions": "relative to 0 nM = 1", "description": "(§1) The cultured Schwann cells were treated with insulin at 0, 1, 10, 50, 100, 200, 500, or 1000 nM, and then the degree of cell proliferation was determined by measurement of the absorbance at 450 nm using a spectrophotometer by using the CCK-8 (Dojindo) test method. ATP was measured using the CellTiter-Glo Luminescent Cell Viability Assay (Promega Corporation), and finally, 5-bromo-2′-deoxyuridine (BrdU) bound during DNA synthesis in cells was identified. In this test method, analysis was performed using Cell Proliferation ELISA, BrdU (colorimetric) (Roche). BrdU was added to the cells, followed by incubation for 24 hours, and then the cells were fixed, followed by DNA denaturation, and then treated with Anti-BrdU antibody. The cells were incubated with TMB substrate by using HRP-linked secondary antibody, and the absorbance at 370 nm was measured in a spectrophotometer."}, "PMP22": {"test_system": "PMP22", "experiment": "PMP22 gene expression in sciatic nerve tissue by qRT-PCR", "type": "in vivo, mice", "description": "In addition, it was examined using qRT-PCR analysis whether specific genes observable in each type of differentiated cells were expressed in differentiated adipocytes and chondrocytes. Non-differentiated cells and differentiated cells were harvested and the total RNA was extracted from the cell pellets using TRIZOL. The pellets were completely dissolved in 1 mL of TRIZOL, and then 0.2 mL of chloroform was added thereto, followed by shaking for 15 seconds and then standing at room temperature for 3 minutes. The resultant product was then separated into the bottom layer phenol-chloroform, the intermediate layer, and the upper layer colorless aqueous solution by centrifugation at 13,000 rpm and 4° C. for 15 minutes, and of these, only the upper layer colorless aqueous solution was separately collected and transferred into a new tube. After 0.5 mL of isopropyl alcohol was added to the tube and then vigorously mixed, the mixture was left at room temperature for 5 minutes. The resultant solution was again centrifuged at 13,000 rpm and 4° C. for 10 minutes, and the supernatant was discarded. Thereafter, 75% ethanol was added to pellets and again vigorously mixed, followed by centrifugation. The upper layer was discarded, and RNA pellets were dried for 5-10 minutes and dissolved in RNase-free water. […]"}, "[5]": {"test_system": "Charcot-Marie-Tooth disease mice", "experiment": "Rotarod testing in Charcot-Marie-Tooth disease mice", "type": "in vivo", "description": "5-Week-old Charcot-Marie-Tooth disease mice were intravenously administered with 12 U/kg insulin and, after two weeks, examined for behavioral performance increase through rotarod testing as in Example 5."}, "ERK and Akt pathways": {"test_system": "ERK and Akt pathways", "experiment": "Western blot of P-ERK1/2, ERK1/2, P-AKT, AKT in insulin-treated Schwann cells", "type": "cell-based", "conditions": "100 nM insulin, 24 hours", "description": "After the cultured Schwann cells were treated with 100 nM insulin protein, the cells were harvested after 24 hours, and then the pellets were added in RIPA buffer, and the cells were disrupted using a sonicator and then centrifuged at 13,000 rpm at 4° C. for 15 minutes. Only the supernatant was subjected to protein quantification, and then 30 μg of proteins was loaded onto SDS-PAGE gel. Thereafter, the gel loaded on PVDF was transferred and then blocked with 5% skim milk for 1 hour, and then P-ERK1/2, ERK1/2, P-AKT, AKT, and β-actin antibodies were attached thereto at 4° C. for 24 hours. After the HRP-linked secondary antibody reaction and the washing process were performed, the bands of proteins were checked by using ECL solution."}, "MPZ [6]": {"test_system": "MPZ", "experiment": "MPZ in sciatic nerve tissue by confocal microscope", "type": "in vivo, mice", "conditions": "12 U/kg intravenously, after two weeks, WT = 1, sham 0.20", "description": "(§2) 5-Week-old Charcot-Marie-Tooth disease mice were intravenously administered with 12 U/kg insulin, and after two weeks, the sciatic nerve tissue was collected and observed through a confocal microscope in Example 7, and the results are shown in FIG. 8D and Table 14."}, "Schwann cells [7]": {"test_system": "Schwann cells", "experiment": "BrdU Cell Proliferation ELISA (colorimetric)", "type": "cell-based", "conditions": "relative to 0 nM = 1", "description": "as §1"}, "[8]": {"test_system": "Charcot-Marie-Tooth disease mice", "experiment": "Myelination of sciatic nerve tissue by transmission electron microscope", "type": "in vivo", "description": "as §2, with “observed by the same method as in the histological analysis” for “observed”, “transmission electron” for “confocal”, “FIGS. 8A to 8C” for “FIG. 8D”, “Tables 12 and 13.” for “Table 14.”"}, "Schwann cells [9]": {"test_system": "Schwann cells", "experiment": "CCK-8 cell proliferation of insulin-treated Schwann cells", "type": "cell-based", "conditions": "for CCK-8: relative to 0 nM = 1", "description": "as §1"}}}
{"substance": "insulin", "values": [{"measurement": "MPZ", "setting": "MPZ [1]", "result": 44.12}, {"measurement": "Grip Strength", "setting": "[2]", "result": 7.7}, {"measurement": "Dystrophin", "setting": "Dystrophin; gastrocnemius muscle, 12 U/kg intravenously, after two weeks, WT = 1, sham 0.27", "result": 0.94}, {"measurement": "myogenesis", "setting": "Dystrophin; in words, FIGS. 9A to 9E", "result": "increased myogenesis"}, {"measurement": "CSA", "setting": "[3]; Left gastrocnemius muscle, sham 0.302", "result": 0.343}, {"measurement": "Volume", "setting": "[3]; Left gastrocnemius muscle, sham 2.533", "result": 2.879}, {"measurement": "CSA", "setting": "[3]; Right gastrocnemius muscle, sham 0.290", "result": 0.323}, {"measurement": "Volume", "setting": "[3]; Right gastrocnemius muscle, sham 2.438", "result": 2.712}, {"measurement": "ATP", "setting": "Schwann cells [4]; insulin 1 nM", "result": 1.08}, {"measurement": "ATP", "setting": "Schwann cells [4]; insulin 10 nM", "result": 1.13}, {"measurement": "ATP", "setting": "Schwann cells [4]; insulin 50 nM", "result": 1.20}, {"measurement": "ATP", "setting": "Schwann cells [4]; insulin 100 nM", "result": 1.23}, {"measurement": "ATP", "setting": "Schwann cells [4]; insulin 200 nM", "result": 1.18}, {"measurement": "ATP", "setting": "Schwann cells [4]; insulin 500 nM", "result": 1.22}, {"measurement": "ATP", "setting": "Schwann cells [4]; insulin 1000 nM", "result": 1.06}, {"measurement": "PMP22 expression levels", "setting": "PMP22; in words", "result": "reduced the PMP22 expression levels"}, {"measurement": "PMP22", "setting": "PMP22; sciatic nerve, 12 U/kg intravenously, after two weeks, WT = 1, sham 1305.36", "result": 986.69}, {"measurement": "Rotarod", "setting": "[5]; 5-week-old CMT mice, 12 U/kg intravenously, after two weeks, WT 112.3, sham 27.8", "result": 67.9}, {"measurement": "behavioral performance of the mice", "setting": "[5]; rotarod and grip strength, in words", "result": "increased the behavioral performance"}, {"measurement": "activation of proliferation potency of Schwann cells through ERK and Akt pathways", "setting": "ERK and Akt pathways", "result": "activated the proliferation potency of Schwann cells through ERK and Akt pathways"}, {"measurement": "MPZ", "setting": "MPZ [6]", "result": 0.69}, {"measurement": "BrdU", "setting": "Schwann cells [7]; insulin 1 nM", "result": 1.13}, {"measurement": "BrdU", "setting": "Schwann cells [7]; insulin 10 nM", "result": 1.32}, {"measurement": "BrdU", "setting": "Schwann cells [7]; insulin 50 nM", "result": 1.39}, {"measurement": "BrdU", "setting": "Schwann cells [7]; insulin 100 nM", "result": 1.51}, {"measurement": "BrdU", "setting": "Schwann cells [7]; insulin 200 nM", "result": 1.50}, {"measurement": "BrdU", "setting": "Schwann cells [7]; insulin 500 nM", "result": 1.36}, {"measurement": "BrdU", "setting": "Schwann cells [7]; insulin 1000 nM", "result": 1.44}, {"measurement": "myelination", "setting": "[8]; in words, FIGS. 8A to 8G", "result": "increased myelination"}, {"measurement": "myelination", "setting": "[8]; sciatic nerve, TEM, 12 U/kg intravenously, after two weeks, WT = 100, sham 13.59", "result": 82.99}, {"measurement": "Thickness", "setting": "[8]; thickness of myelination, sciatic nerve, TEM, 12 U/kg intravenously, after two weeks, WT 3.32, sham 0.67", "result": 2.53}, {"measurement": "optimum concentration for increasing the proliferation capacity of Schwann cells", "setting": "Schwann cells [9]; from CCK-8, ATP and BrdU tests, 0-1000 nM", "result": 100, "unit": "nM"}, {"measurement": "CCK-8", "setting": "Schwann cells [9]; insulin 1 nM", "result": 1.03}, {"measurement": "CCK-8", "setting": "Schwann cells [9]; insulin 10 nM", "result": 1.09}, {"measurement": "CCK-8", "setting": "Schwann cells [9]; insulin 50 nM", "result": 1.16}, {"measurement": "CCK-8", "setting": "Schwann cells [9]; insulin 100 nM", "result": 1.18}, {"measurement": "CCK-8", "setting": "Schwann cells [9]; insulin 200 nM", "result": 1.19}, {"measurement": "CCK-8", "setting": "Schwann cells [9]; insulin 500 nM", "result": 1.21}, {"measurement": "CCK-8", "setting": "Schwann cells [9]; insulin 1000 nM", "result": 1.21}]}
